Data taken from patent US8609812B2, “Use of β-2-microglobulin to assess glomerular alterations and damage in the kidney” (Novartis AG, priority 2007, dated 2013).

Tested on: kidney
Assay: rat in vivo studies, histopathology of kidney
From the text: Results of in vivo studies and histopathology. All 10 rat in vivo studies were successfully conducted.
In FIG. 2, the distributions of grades of the histopathology assessment are shown. The predominance of grade 1 and grade 2 findings and the absence of grade 5 lesions indicate that the goal of inducing mainly mild nephrotoxicity has been achieved. The considerable number of grade 1 and some grade 2 findings in the vehicle-dosed and the hepatotoxicant-dosed animals indicates the level of sensitivity of the histopathology assessment performed in this project. No significant dose-dependent nephrotoxicity was induced by the hepatotoxicants. In FIG. 3 a detailed list of all reported localized lesions, including the number of occurrences for each grade, separated by nephrotoxicant-dosed animals and the control animals (vehicle-dosed and hepatotoxicant-dosed) is shown. Seventy-five different localized finding were observed.
The different types of lesions were usually not observed in an isolated fashion, but typically in a highly correlated manner representing different molecular processes. In FIG. 4, all histopathology findings are shown for the cisplatin study. […] In addition, a logical sequence of molecular processes along the dose- and time-ordered animals can be observed. […]

SMILES	histopathology findings in the kidney (ANIT study, vehicle or different doses)	renal histopathology findings, sequence of processes (rat, in vivo)
S=C=Nc1cccc2ccccc12 [ANIT, alpha-naphtylisothiocyanate]	not in the kidney	
N.N.[Cl][Pt][Cl] [cisplatin]		Necrosis as a consequence of damage is seen, and then regeneration processes such as basophilia and mitosis are seen
